assay: in vitro; conditions: human, hela cells, % viability

SMILES	viability at 28.5 h, 10 µM
O=C(c1ccc(SCc2cccnc2)c([N+](=O)[O-])c1)N1CCCCC1 [CBK294452]	98.8%
CS(=O)(=O)N1CC2(CCNCC2)c2ccccc21 [CBK005171]	94.4%
COC(=O)c1ccc(NC(=O)CCN2C(=O)c3cccc([N+](=O)[O-])c3C2=O)cc1 [CBK263137]	98.1%
Cc1cccc(CN(CCN)C(=O)Nc2ccc(C(C)(C)C)cc2)n1 [CBK046230C]	96.4%
c1ccc(C(CCN2CCc3ccccc3C2)c2ccccc2)cc1 [CBK126404]	99.1%
Cc1ccc([N+](=O)[O-])cc1NC(=O)C1CCCN1S(=O)(=O)c1ccc(Cl)cc1 (stereo not drawn) [CBK033769]	95.7%
Cc1nn(CCC(=O)NCCN2CCC(C)CC2)c(C)c1Cl [CBK281571]	104%
O=C(Nc1ccc(S(=O)(=O)N2CCCCC2)cc1)c1ccc(CN2CCOCC2)cc1 [CBK264002]	111%
COc1ccc(CN(Cc2cccs2)[C@@H]2COC[C@H]2c2ccc(F)cc2)cc1 [CBK286487]	90.6%
c1ccc(OCCOc2nccnc2-c2cc3ccccc3s2)cc1 [CBK106787]	92.3%
Cc1cc(C(=O)N2Cc3ccccc3C2)n[nH]1 [CBK200328]	100%
COc1cc(/C=N/NC(=O)CC#N)ccc1OCc1ccccc1Cl [CBK263932]	84.9%
CCCn1nc(COc2cccc(F)c2)nc1C1CCN(C(C)=O)CC1 [CBK306637]	97.7%
CCOc1ccc(S(=O)(=O)N2CCCC(C(=O)NCCO)C2)cc1 (stereo not drawn) [CBK269968]	83.8%
Cc1ccccc1OCc1nnc(SCC(=O)N2CCOCC2)n1C [CBK265850]	96.1%
CCc1cnc(CN(C)C2CCN(Cc3cccc(C(N)=O)c3)C2)o1 (stereo not drawn) [CBK305357]	90.5%
CC(=O)N[C@H](C)Cn1nnc2ccccc21 [CBK282246]	88%
COc1ccc(NC(=O)CC2SC(NC3CCCCC3)=NC2=O)c(OC)c1 (stereo not drawn) [CBK059502]	93.7%
CNC(=O)C1(Cc2ccccc2-c2ccccc2)CCN(C(=O)Cc2ccc(C)cc2)CC1 [CBK286274]	88.4%
COc1ccccc1-c1nnc(NC(=O)COc2ccccc2)o1 [CBK287590]	106%
CCOC(=O)CNC(=O)N1CCCC1c1nc(-c2ccccc2)c2ccccn12 (stereo not drawn) [CBK046502]	103%
Cc1ccc(Cn2nc(NC(=O)C3CCCCC3)c3ccccc32)cc1 [CBK048217]	96.5%
COc1ccc2oc(C(=O)NC(C)(C)CN3CCCCC3)cc2c1 [CBK282053]	93.8%

SMILES	viability at 28.5 h, 10 µM
CN(C)CCCN1C(=O)C(O)=C(C(=O)c2ccncc2)C1c1ccccc1 (stereo not drawn) [CBK287779]	107%
Cc1onc(-c2ccccc2)c1C(=O)Nc1ccccc1N1CCCNCC1 [CBK038929T]	96.9%
CN(C)C(=O)c1ccc(-c2ncc(OCCN3CCCC3=O)nc2N)cc1 [CBK145184]	97.5%
NCCCCCCNc1ncnc2c1ncn2[C@H]1C[C@@H](O)[C@@H](CO)O1 [CBK201260]	105%
Cc1ccc(C(=O)N2CCN(Cc3cc(=O)n4ccsc4n3)CC2)cc1 [CBK305057]	107%
CCCc1[nH]nc(O)c1Cc1cc(F)ccc1Br [CBK075031]	94.6%
COc1ccc(C)cc1S(=O)(=O)Nc1cc(N2CCN(CC3CC3)CC2)c2occc2c1 [CBK073624C]	94.2%
O=C(O)/C(=C\c1ccccc1)NC(=O)c1cccc([N+](=O)[O-])c1 [CBK263348]	96.3%
O=C(NCCNc1ccc([N+](=O)[O-])cc1Cl)c1ccc(F)cc1 [CBK262344]	86.6%
Cc1nnc([C@H]2CCN(Cc3ccc(F)cc3)C2)o1 [CBK289391]	88.4%
Cc1ccc(C(=O)NNC(=O)c2cccnc2)cc1 [CBK261045]	94%
Cc1nc2ccc(C(=O)N3CCN(c4ccccc4)CC3)cn2c1N(C)C(=O)c1cccs1 [CBK146544]	99%
CN(c1ccccc1)S(=O)(=O)c1cccc(NC(=O)Cc2csc(-c3ccco3)n2)c1 [CBK297792]	75.9%
OC12CCCON1OC(c1ccccc1)C2 (stereo not drawn) [CBK006752]	111%
COc1ccccc1CN(C)S(=O)(=O)c1ccc(S(N)(=O)=O)cc1 [CBK306008]	113%
CCCCCOc1nccnc1N1CCNCC1 [CBK001901G]	103%
OC1CC(c2cc(NCCc3nc4ccccc4o3)ncn2)C1 (stereo not drawn) [CBK306573]	99.9%
O=C(NC1CC1)[C@H]1C=CCN1C(=O)c1cccs1 [CBK284324]	94.7%
Cc1cc(NS(=O)(=O)c2cccc(C(F)(F)F)c2)n(C)n1 [CBK067244]	94.1%
CS(=O)(=O)c1ccc(-c2cnc3nc(N)ccc3c2)cc1 [CBK061916]	92.9%
CC(C)(C)C(=O)N1CC(n2nc(-c3ccccc3)ccc2=O)C1 [CBK284623]	92.1%
CCC(NC(=O)C(C)Cn1cccn1)c1ccc(F)cc1 (stereo not drawn) [CBK283210]	88.1%
CC(=O)Nc1ccc(S(=O)(=O)N2CCN(C(=O)c3cccnc3)CC2)cc1 [CBK264279]	96.5%

SMILES	viability at 28.5 h, 10 µM
C=C(C)CN1CCN(C(=O)C(CC)Oc2ccccc2F)CC1 (stereo not drawn) [CBK282935]	90.1%
Cc1cc(C)cc(NC(=O)C(Cc2ccccc2)C(=O)Nc2cc(C)cc(C)c2)c1 [CBK266165]	106%
O=S(=O)(Nc1cccc(-c2nnn[nH]2)c1)c1cc(Br)c(Cl)s1 [CBK160374]	102%
Cc1cc(C)nc(N2CCC(CC(=O)NC(C)CCN3CCCCCC3)CC2)n1 (stereo not drawn) [CBK285993]	96.4%
O=C(Oc1ccc(/C=N/c2ccc(O)c(-c3nc4ccccc4s3)c2)cc1)c1ccccc1Cl [CBK261241]	89.9%
Cc1nn(Cc2ccc(F)cc2)c(=O)c2cc3sccc3n12 [CBK284059]	72.7%
CC(C)OC(=O)Cn1c(C2CCCNC2)cc2cccnc21 (stereo not drawn) [CBK285058]	100%
Cn1ccc(C(=O)NC(Cc2ccsc2)c2nccs2)cc1=O (stereo not drawn) [CBK285143]	87%
O=C(CN1CCN(c2ccccn2)CC1)N1c2ccccc2Sc2ccc(C(F)(F)F)cc21 [CBK268835G]	98.8%
CCc1c(C)nc2ccccc2c1S(=O)(=O)CCC(=O)OC [CBK155468T]	96.8%
Cc1nn2cc(-c3n[nH]cc3[N+](=O)[O-])cnc2c1C(=O)O [CBK268883]	98.3%
CC(=O)Nc1ccc2nc(Nc3nc4c(F)cccc4s3)sc2c1 [CBK287475]	89.8%
O=C(Nc1nnc(-c2ccncc2)o1)c1ccc(F)cc1 [CBK287431]	80%
COc1ccc(C)cc1C1(CNC(=O)C2CC(O)CN2)CCOCC1 (stereo not drawn) [CBK304162]	92%
CCNC(=O)c1ccc(-n2cccn2)c(C#Cc2ccccn2)c1 [CBK283125]	111%
FC(F)(F)c1cccc(Sc2cccs2)n1 [CBK115242]	91.5%
CSc1ncc(Cl)c(C(=O)NCCc2ccc(S(N)(=O)=O)cc2)n1 [CBK268679]	104%
O=C(O)CCC(=O)Nc1ccc(N2CCN(CCO)CC2)cc1 [CBK078486]	94.5%
CC1CCCCN1C(=O)Cn1ncn2c(cc3ccsc32)c1=O (stereo not drawn) [CBK284201]	92.1%
CCOC(=O)C(CNC(=O)c1c(CC)noc1C)Cc1ccccc1 (stereo not drawn) [CBK305961]	90.8%
Cc1c(CN2CCC(CO)C2)cnn1Cc1ccccc1 (stereo not drawn) [CBK282113]	99.5%
CCNc1ncc(C(=O)N2CCC(Nc3cccnc3)CC2)s1 [CBK304047]	99.6%
Cc1ccc(Oc2ccc([N+](=O)[O-])cc2F)c(Br)c1 [CBK002821]	90.3%

SMILES	viability at 28.5 h, 10 µM
CC(=O)NC(NC(=S)Nc1sc2c(c1C#N)CCCC2)C(Cl)(Cl)Cl (stereo not drawn) [CBK261053]	99.2%
O=C/C(=C\Nc1ccc(S(=O)(=O)N2CCCCC2)cc1)c1nc2ccccc2o1 [CBK262281]	99.2%
CN1CCN(c2cncc(-c3ccccc3CO)n2)CC1 [CBK065302]	91.8%
COc1ccc([C@@]23CC[C@@H](NC(=O)Nc4ccc(F)c(C#N)c4)C[C@@H]2N(C)CC3)cc1OC [CBK051659T]	84%
Cc1ccc(C2=N/C(=C/c3ccc(OS(=O)(=O)c4ccc(C)c([N+](=O)[O-])c4)cc3)C(=O)O2)cc1 [CBK264647]	99.1%
CC(C)c1cc2cc3ccc(=O)oc3cc2o1 [CBK033944]	93.6%
CCOC(=O)c1c(NC(=O)CCN2C(=O)c3cccc4cccc(c34)C2=O)sc2c1CCC2 [CBK262982]	111%
Cc1cc(CN2CCN(C(=O)NCc3cccnc3)CC2)on1 [CBK305627]	114%
O=C1NC2(CCCC2)N=C1c1ccc(Cl)cc1Cl [CBK288042]	82.4%
Cc1ccc2oc(-c3cc(NC(=O)c4nc[nH]n4)ccc3O)nc2c1 [CBK266900]	101%
Cc1nnc2ccc(N3CCN(Cc4cscn4)CC3)nn12 [CBK304910]	101%
COCc1nnc(Sc2ccc(C(F)(F)F)cn2)s1 [CBK115219]	100%
CC1CCc2c(sc3ncnc(NC4CCN(CC(N)=O)CC4)c23)C1 (stereo not drawn) [CBK305008]	91.7%
N#Cc1cccc(NC(=O)c2cccs2)c1 [CBK066855]	96.2%
CN(CCN(C)/N=C/c1c2ccccc2cc2ccccc12)/N=C/c1c2ccccc2cc2ccccc12 [CBK262039]	94.8%
CCOC(=O)C1(C2CCCCC2)CCN(C(=O)COc2ccccc2OC)CC1 [CBK136928]	96.7%
CSCCN1CCN(c2nccnc2OCCN2C(=O)CCC2=O)CC1 [CBK084301]	105%
C=CCN1C(=O)CC2(C1=O)C(=O)N(C)c1ccc(Cl)cc12 (stereo not drawn) [CBK075242]	110%
Cc1cc(/C=C(\C#N)c2nc3ccccc3[nH]2)c(C)n1-c1ccc(C(=O)O)cc1 [CBK267262]	94.7%
CCN(CC)CC(c1ccccc1)C(O)c1ccc(OC)cc1 (stereo not drawn) [CBK262074C]	88.8%
NC(=O)c1c(NC(=O)NCc2cccnc2)sc2c1CCC2 [CBK307578]	70.3%

Reference: article PMC12040169 (PLOS Biology, 2025)
